For orientation: melting point means the temperature, or range, at which the solid turns liquid.

For series [1], the system named is Human lung cancer cells, NCI-H226. Briefly: Inhibition of cancer cell growth (sulforhodamine B assay). The format is cell-based. The conditions noted are these: human lung cancer cells NCI-H226, 48 hr incubation, eight concentrations, SRB stain, absorbance 515 nm. As for the experimental part: Human lung cancer cells, NCI-H226, were placed in 96-well microtiter plates (5,000 cells/100 μl/well). The plates were incubated at 37° C. under 5% CO2 and 95% air and 100% relative humidity for 24 hr. Cells in one plate were fixed in situ with trichloroacetic acid (TCA) to measure the cell population.
Compound 1 was dissolved in dimethylsulfoxide (DMSO) to give a solution at 400-fold the desired final maximum test concentration and stored frozen. An aliquot of the frozen DMSO solution was thawed and diluted to twice the desired final maximum test concentration. Additional ½ log serial dilutions were made to provide a total of eight concentrations. 100 μl aliquots of these different dilutions were added to the microtiter wells, resulting in the required final drug concentrations. After Compound 1 was added, the plates were incubated at 37° C. under 5% CO2 and 95% air and 100% relative humidity for an additional 48 hr. The cells were fixed in situ by slow addition of 50 μl of cold 50% (w/v) TCA and incubated at 4° C. for 60 minutes. The supernatant was removed, and the plates were gently washed twice with water and air-dried. […] The bound stain was subsequently solubilized with 10 mM trizma base, and absorbance was measured by an automated plate reader at the wavelength of 515 nm.
In general terms: In SRB staining, fixed cells bind dye roughly in proportion to their protein.

Regarding `O=C(O)CCC(=O)OCc1ccc(-c2nn(Cc3ccccc3)c3ccccc23)o1` [Compound 1, succinic acid mono-[5-(1-benzyl-1H-indazol-3-yl)-furan-2-ylmethyl]ester], the “inhibition of growth of NCI-H226” value in series [1] is on record as “effectively inhibited growth of NCI—H226”. `Cc1cc2c(o1)c(-c1ccc(COC(=O)CCC(=O)O)o1)nn2Cc1ccccc1` [Compound 7, succinic acid mono-[5-(1-benzyl-5-methyl-1H-furo[3,2-C]pyrazol-3-yl)-furan-2-ylmethyl]ester] gave a melting point of 126.3 to 129 °C. Take `O=C(O)CCC(=O)OCc1ccc(-c2nn(-c3ccc(Br)cc3)c3ccccc23)o1` [Compound 12, succinic acid mono-[5-(1-(4-bromo-phenyl)-1H-indazol-3-yl)-furan-2-ylmethyl]ester]: the melting point was 111 to 112.7 °C.

The values are drawn from patent US7378532B2, “Fused pyrazolyl compound” (Yung Shin Pharmaceutical Ind. Co., Ltd., priority 2004, dated 2008).
